{"source": "PubChem BioAssay AID1259409", "about": "(Chemical Carcinogenesis Research Information System (CCRIS), 2018)", "origin": "cited, not measured here", "system": "rodent chemically induced tumor inhibition, incidence and multiplicity", "assay": "CCRIS tumor inhibitor studies", "settings": "Dose [Inhibitor]: 0, Promoter: NONE USED", "data": [{"smiles": "CCC1(c2ccccc2)C(=O)NC(=O)NC1=O", "values": [{"measurement": "tumour outcome (control, treated, inhibition, significance)", "setting": "Carcinogen: DIETHYLNITROSAMINE, 55-18-5, 80 MG/KG 1/D FOR 3 D PRIOR TO EACH CARCINOGEN DOSE (STUDY DURATION: 6 MO), Route [Inhibitor]: INTRAPERITONEAL, Species: RAT, Strain/Sex: BD6/FEMALE, Target Tissue: Type of Lesion: ESOPHAGUS: TUMOR, Dose [Carcinogen]: 80 MG/KG BW 1/WK FOR 8 WK", "result": "18%, 0%, 100%, not significant"}, {"measurement": "tumour outcome (control, treated, inhibition, significance)", "setting": "Carcinogen: DIETHYLNITROSAMINE, 55-18-5, 80 MG/KG 1/D FOR 3 D PRIOR TO EACH CARCINOGEN DOSE (STUDY DURATION: 6 MO), Route [Inhibitor]: INTRAPERITONEAL, Species: RAT, Strain/Sex: BD6/FEMALE, Target Tissue: Type of Lesion: LIVER: TUMOR, Dose [Carcinogen]: 80 MG/KG BW 1/WK FOR 8 WK", "result": "82%, 100%, -18%, not significant"}, {"measurement": "tumour outcome (control, treated, inhibition, significance)", "setting": "Carcinogen: N-ETHYL-N-NITROSOUREA, 759-73-9, 0.05% IN DRINKING WATER BEGINNING 4 WK POST CARCINOGEN AND CONTINUING FOR STUDY DURATION (STUDY DURATION: 52 WK), Route [Inhibitor]: ORAL, Species: RAT, Strain/Sex: WF/FEMALE, Target Tissue: Type of Lesion: BRAIN: GLIOMA, Dose [Carcinogen]: 5 MG ONCE AT 24 HR OF AGE", "result": "7/13 (54%), 1/12 (8%), 85%, p<.05"}, {"measurement": "tumour outcome (control, treated, inhibition, significance)", "setting": "Carcinogen: N-ETHYL-N-NITROSOUREA, 759-73-9, 0.05% IN DRINKING WATER BEGINNING 4 WK POST CARCINOGEN AND CONTINUING FOR STUDY DURATION (STUDY DURATION: 52 WK), Route [Inhibitor]: ORAL, Species: RAT, Strain/Sex: WF/MALE, Target Tissue: Type of Lesion: BRAIN: GLIOMA, Dose [Carcinogen]: 5 MG ONCE AT 24 HR OF AGE", "result": "3/13 (23%), 1/10 (10%), 56%, not significant"}, {"measurement": "tumour outcome (control, treated, inhibition, significance)", "setting": "Carcinogen: N-ETHYL-N-NITROSOUREA, 759-73-9, 0.05% IN DRINKING WATER BEGINNING 4 WK POST CARCINOGEN AND CONTINUING FOR STUDY DURATION (STUDY DURATION: 52 WK), Route [Inhibitor]: ORAL, Species: RAT, Strain/Sex: WF/MALE, Target Tissue: Type of Lesion: MENINGES: TUMOR, Dose [Carcinogen]: 5 MG ONCE AT 24 HR OF AGE", "result": "1/13 (8%), 0/10 (0%), 100%, not calculated"}, {"measurement": "tumour outcome (control, treated, inhibition, significance)", "setting": "Carcinogen: N-METHYL-N-NITROSOUREA, 684-93-5, 0.05% IN DIET BEGINNING POST CARCINOGEN TREATMENT AND CONTINUING FOR 23 WK (STUDY DURATION: 25 WK), Route [Inhibitor]: ORAL, Species: RAT, Strain/Sex: F344/MALE, Target Tissue: Type of Lesion: FORESTOMACH: PAPILLOMA, Dose [Carcinogen]: 50 MG/KG 4/2 WK", "result": "8/17 (47%), 12/18 (67%), -43%, not calculated"}, {"measurement": "tumour outcome (control, treated, inhibition, significance)", "setting": "Carcinogen: N-METHYL-N-NITROSOUREA, 684-93-5, 0.05% IN DIET BEGINNING POST CARCINOGEN TREATMENT AND CONTINUING FOR 23 WK (STUDY DURATION: 25 WK), Route [Inhibitor]: ORAL, Species: RAT, Strain/Sex: F344/MALE, Target Tissue: Type of Lesion: FORESTOMACH: SQUAMOUS CELL CARCINOMA, Dose [Carcinogen]: 50 MG/KG 4/2 WK", "result": "2/17 (12%), 9/18 (50%), -316%, not calculated"}, {"measurement": "tumour outcome (control, treated, inhibition, significance)", "setting": "Carcinogen: N-METHYL-N-NITROSOUREA, 684-93-5, 0.05% IN DIET BEGINNING POST CARCINOGEN TREATMENT AND CONTINUING FOR 23 WK (STUDY DURATION: 25 WK), Route [Inhibitor]: ORAL, Species: RAT, Strain/Sex: F344/MALE, Target Tissue: Type of Lesion: HEMATOPOIETIC SYSTEM: LYMPHOMA OR LEUKEMIA, Dose [Carcinogen]: 50 MG/KG 4/2 WK", "result": "3/17 (18%), 5/18 (28%), -56%, not calculated"}, {"measurement": "tumour outcome (control, treated, inhibition, significance)", "setting": "Carcinogen: N-METHYL-N-NITROSOUREA, 684-93-5, 0.05% IN DIET BEGINNING POST CARCINOGEN TREATMENT AND CONTINUING FOR 23 WK (STUDY DURATION: 25 WK), Route [Inhibitor]: ORAL, Species: RAT, Strain/Sex: F344/MALE, Target Tissue: Type of Lesion: SMALL INTESTINE: ADENOCARCINOMA, Dose [Carcinogen]: 50 MG/KG 4/2 WK", "result": "9/17 (53%), 6/18 (33%), 38%, not calculated"}, {"measurement": "tumour outcome (control, treated, inhibition, significance)", "setting": "Carcinogen: N-METHYL-N-NITROSOUREA, 684-93-5, 0.05% IN DIET BEGINNING POST CARCINOGEN TREATMENT AND CONTINUING FOR 23 WK (STUDY DURATION: 25 WK), Route [Inhibitor]: ORAL, Species: RAT, Strain/Sex: F344/MALE, Target Tissue: Type of Lesion: SMALL INTESTINE: ADENOMA, Dose [Carcinogen]: 50 MG/KG 4/2 WK", "result": "10/17 (59%), 15/18 (83%), -41%, not calculated"}, {"measurement": "tumour outcome (control, treated, inhibition, significance)", "setting": "Carcinogen: N-METHYL-N-NITROSOUREA, 684-93-5, 0.05% IN DIET BEGINNING POST CARCINOGEN TREATMENT AND CONTINUING FOR 23 WK (STUDY DURATION: 25 WK), Route [Inhibitor]: ORAL, Species: RAT, Strain/Sex: F344/MALE, Target Tissue: Type of Lesion: THYROID: ADENOCARCINOMA, Dose [Carcinogen]: 50 MG/KG 4/2 WK", "result": "1/17 (6%), 6/18 (33%), -450%, not calculated"}, {"measurement": "tumour outcome (control, treated, inhibition, significance)", "setting": "Carcinogen: N-METHYL-N-NITROSOUREA, 684-93-5, 0.05% IN DIET BEGINNING POST CARCINOGEN TREATMENT AND CONTINUING FOR 23 WK (STUDY DURATION: 25 WK), Route [Inhibitor]: ORAL, Species: RAT, Strain/Sex: F344/MALE, Target Tissue: Type of Lesion: THYROID: ADENOMA, Dose [Carcinogen]: 50 MG/KG 4/2 WK", "result": "3/17 (18%), 16/18 (89%), -394%, not calculated"}, {"measurement": "tumour outcome (control, treated, inhibition, significance)", "setting": "Carcinogen: N-METHYL-N-NITROSOUREA, 684-93-5, 0.05% IN DIET BEGINNING POST CARCINOGEN TREATMENT AND CONTINUING FOR 23 WK (STUDY DURATION: 25 WK), Route [Inhibitor]: ORAL, Species: RAT, Strain/Sex: F344/MALE, Target Tissue: Type of Lesion: TONGUE: PAPILLOMA, Dose [Carcinogen]: 50 MG/KG 4/2 WK", "result": "2/17 (12%), 2/18 (11%), 8%, not calculated"}, {"measurement": "tumour outcome (control, treated, inhibition, significance)", "setting": "Carcinogen: N-METHYL-N-NITROSOUREA, 684-93-5, 0.05% IN DIET BEGINNING POST CARCINOGEN TREATMENT AND CONTINUING FOR 23 WK (STUDY DURATION: 25 WK), Route [Inhibitor]: ORAL, Species: RAT, Strain/Sex: F344/MALE, Target Tissue: Type of Lesion: TONGUE: SQUAMOUS CELL CARCINOMA, Dose [Carcinogen]: 50 MG/KG 4/2 WK", "result": "2/17 (12%), 3/18 (17%), -42%, not calculated"}, {"measurement": "tumour outcome (control, treated, inhibition, significance)", "setting": "Carcinogen: N-METHYL-N-NITROSOUREA, 684-93-5, 0.05% IN DIET BEGINNING POST CARCINOGEN TREATMENT AND CONTINUING FOR 23 WK (STUDY DURATION: 25 WK), Route [Inhibitor]: ORAL, Species: RAT, Strain/Sex: F344/MALE, Target Tissue: Type of Lesion: URINARY BLADDER: PAPILLOMA, Dose [Carcinogen]: 50 MG/KG 4/2 WK", "result": "2/17 (12%), 1/18 (6%), 50%, not calculated"}, {"measurement": "tumour outcome (control, treated, inhibition, significance)", "setting": "0.05% IN DIET FOR 13 WK AFTER WEANING (STUDY DURATION: 13 WK), Route [Inhibitor]: ORAL, Species: MOUSE, Strain/Sex: DDK/FEMALE, Target Tissue: Type of Lesion: LIVER: TUMOR, Dose [Carcinogen]: 40 MG/KG ADMINISTERED TO MOTHERS ON DAY 14 OF GESTATION", "result": "2/15 (13%), 1/15 (7%), 46%, p<0.05"}, {"measurement": "tumour outcome (control, treated, inhibition, significance)", "setting": "0.05% IN DIET FOR 13 WK AFTER WEANING (STUDY DURATION: 13 WK), Route [Inhibitor]: ORAL, Species: MOUSE, Strain/Sex: DDK/MALE, Target Tissue: Type of Lesion: LIVER: TUMOR, Dose [Carcinogen]: 40 MG/KG ADMINISTERED INTRAPERITONEALLY TO MOTHERS ON DAY 14 OF GESTATION", "result": "2/15 (13%), 1/7 (6%), 54%, p<0.05"}, {"measurement": "tumour outcome (control, treated, inhibition, significance)", "setting": "0.05% IN DIET FOR 25 WK AFTER WEANING (STUDY DURATION: 25 WK), Route [Inhibitor]: ORAL, Species: MOUSE, Strain/Sex: DDK/MALE, Target Tissue: Type of Lesion: LIVER: TUMOR, Dose [Carcinogen]: 40 MG/KG ADMINISTERED TO MOTHERS ON DAY 14 OF GESTATION", "result": "8/15 (53%), 0/18 (0%), 100%, not calculated"}]}]}
